“Also recorded” adds a separate entry of the source. Structures can show the parent of a compound that is named as a salt. Where two headings read alike, the source gives them in different places.
Assays:
DOR [1] = biological target: T1, DOR (Homo sapiens, UniProt P41143); test: [35S]GTPγS binding assay, CHO-hDOR membranes; format: biochemical; conditions: for EC50: [35S]GTPγS, CHO human DOR membranes; for Emax: relative to reference full agonist DPDPE, read-out: DOR % stim.
T1 construct: host or cells: CHO (CHO-hDOR)

DOR [2] = biological target: T2, DOR (Rattus norvegicus, UniProt P33533); test: competition radioligand binding, rat brain membranes, [3H][Ile5,6]deltorphin II; conditions: for Ki: rat brain membranes, read-out: opioid receptor binding Ki DOR
T2 construct: Membranes were prepared from Sprague-Dawley rat brains or guinea-pig brains according to the described procedures; tissue Labortierkunde und Laborgenetik, Medizinische Universität Wien; host or cells: Sprague-Dawley rat brain without cerebella

KOR [3] = biological target: T3, KOR (Homo sapiens, UniProt P41145); test: [35S]GTPγS binding assay, CHO-hKOR membranes; format: biochemical; conditions: for Emax: relative to reference full agonist U69,593, read-out: KOR % stim.
T3 construct: host or cells: CHO (CHO-hKOR)

MOR [4] = biological target: T4, MOR (Homo sapiens, UniProt P35372); test: [35S]GTPγS binding assay, CHO-hMOR membranes; format: biochemical; conditions: for Emax: relative to reference full agonist DAMGO, read-out: MOR % stim.
T4 construct: host or cells: CHO (CHO-hMOR)

KOR [5] = biological target: T5, KOR (Cavia porcellus, UniProt P41144); test: competition radioligand binding, guinea-pig brain membranes, [3H]U69,593; conditions: guinea-pig brain membranes; read-out: opioid receptor binding Ki KOR
T5 construct: Membranes were prepared from Sprague-Dawley rat brains or guinea-pig brains according to the described procedures; tissue Labortierkunde und Laborgenetik, Medizinische Universität Wien; host or cells: guinea-pig brain without cerebella

MOR [6] = biological target: T6, MOR (Rattus norvegicus, UniProt P33535); test: competition radioligand binding, rat brain membranes, [3H]DAMGO; conditions: for Ki: rat brain membranes, read-out: opioid receptor binding Ki MOR
T6 construct: Membranes were prepared from Sprague-Dawley rat brains or guinea-pig brains according to the described procedures; tissue Labortierkunde und Laborgenetik, Medizinische Universität Wien; host or cells: Sprague-Dawley rat brain without cerebella

DOR [7] = biological target: T1, DOR; test: competition radioligand binding, CHO cell membranes expressing human DOR, [3H]diprenorphine
Procedure: (§1) Membranes from CHO cells expressing human opioid receptors were prepared in 50 mM Tris-HCl buffer (pH 7.7) according to a previously described procedure.[64] Cells expressing human opioid receptors grown at confluence were removed from the culture plates by scraping, homogenized in 50 mM Tris buffer (pH 7.7), using a Polytron homogenizer, then centrifuged once and washed by an additional centrifugation at 27 000g for 15 min, at 4 °C. The final pellet was resuspended in Tris buffer and stored at −80 °C until use. Protein content of brain and cell membrane preparation homogenates was determined by the method of Bradford using bovine serum albumin as the standard.[65]
(§2) Rat brain membranes were incubated with either [^3H]DAMGO (1 nM, 45 min, 35 °C) or [^3H][Ile^5,6]deltorphin II (0.5 nM, 45 min, 35 °C) for labeling MOR or DOR receptors, respectively. Guinea-pig brain membranes were incubated with [^3H]U69,593 (1 nM, 30 min, 30 °C) for labeling KOR. Binding assays with CHO cell membranes were conducted at 25 °C for 60 min using [^3H]DAMGO (1 nM) or [^3H]diprenorphine (0.2 nM) for labeling MOR or DOR, respectively. Nonspecific binding was determined using 10 μM naloxone (rodent brain) or 1–10 μM of the unlabeled counterpart of each radioligand (CHO cells). Reactions were terminated by rapid filtration through Whatman glass fiber GF/C filters. Filters were washed three times with 5 mL of ice-cold 50 mM Tris-HCl buffer (pH 7.4) using a Brandel M24R cell harvester (Gaithersburg, MD). Radioactivity retained on the filters was counted by liquid scintillation counting using a Beckman Coulter LS6500 (Beckman Coulter Inc., Fullerton, CA). All binding experiments were performed in duplicate and repeated at least three times.
(§3) aDetermined in competition radioligand binding assays using CHO cell membranes expressing
(§4) human MOR and DOR. Values represent the mean ± SEM of three independent experiments each

MOR [8] = biological target: T4, MOR; test: competition radioligand binding, CHO cell membranes expressing human MOR, [3H]DAMGO
Procedure: as §1, §2, §3, §4

[9] = system: peripheral opioid receptors; test: antagonism by naloxone methiodide in the acetic acid-induced writhing assay; format: in vivo, mouse; conditions: sc co-administration with naloxone methiodide 1 mg/kg; agonist 50 or 200 μg/kg sc; 30 min
From the text: To determine whether targeted 6-amino acid and 6-dipeptide analogues inhibit writhing behavior in mice through peripheral opioid receptors activation, we used naloxone methiodide.[27]
Values are shown as mean of writhes ± SEM (n = 6–7 mice per group). ***P < 0.001 vs control group; ^#P < 0.05, ^##P < 0.01 and ^###P < 0.001 vs agonist treated group, ANOVA with Tukey’s post hoc test.
Writhing was induced in male CD1 mice by ip injection of a 0.6% acetic acid aqueous solution as described previously.[48],[62] Groups of mice were administered sc different doses of test compound or saline (control), and 5 min prior to testing (25 min after drug or saline), each animal received an ip injection of acetic acid solution. Each mouse was placed in individual transparent Plexiglas chambers, and the number of writhes was counted during a 10 min observation period. […] For the antagonism study, naloxone methiodide was sc co-administered with the respective opioid agonist, and writhing was assessed as described above.

male CD1 mice [10] = test: acetic acid-induced writhing assay after sc administration; format: in vivo, mouse; conditions: Mus musculus, 0.5 h, read-out: ED50 (95% CI), mice, sc, inhibition of writhing 30 min after drug administration
male CD1 mice [11] = conditions: sc; cited from earlier work
MOR [12] = conditions: systemic sc 2b, icv CTAP; cited from earlier work
mouse = system: mouse; design: method as in PMID 25721395; conditions: systemic ip administration; cited from earlier work
rats = system: rats; design: method as in PMID 16339394; conditions: given orally; cited from earlier work
[13] = [35S]GTPγS, CHO human KOR membranes, read-out: KOR EC50
[14] = [35S]GTPγS, CHO human MOR membranes, read-out: MOR EC50

Row | SMILES | EC50 (DOR [1]) [nM] | Emax (DOR [1]) [%] | Ki (DOR [2]) [nM] | EC50 (KOR [3]; [13]) [nM] | Emax (KOR [3]) [%] | EC50 (MOR [4]; [14]) [nM] | Emax (MOR [4]) [%] | Ki (KOR [5]) [nM] | Ki (MOR [6]) [nM] | Ki (DOR [7]) [nM] | Ki (MOR [8]) [nM] | effect of naloxone methiodide on antinociceptive effect [9] | ED50 (male CD1 mice [10]) [mg/kg] | also measured
1 | CC[C@H](N[C@@H]1CC[C@@]2(OC)[C@H]3Cc4ccc(O)c5c4[C@@]2(CCN3C)[C@H]1O5)C(=O)O [Compound 19b, (2S)-2-[(4,5α-Epoxy-3-hydroxy-14β-methoxy-17-methylmorphinan-6β-yl)amino]-2-ethylacetic Acid Dihydrochloride] | 2.22 ± 1.64 | 100 ± 3 | 1.3 ± 0.24 | 572 ± 18 | 72 ± 0.5 | 5.47 ± 1.18 | ~80 | 201 ± 10 | 1.83 ± 0.04 | 1.99 ± 0.84 | 2.1 ± 0.33 | antagonized |  | increased agonist potency at DOR vs MOR (DOR [1]; [35S]GTPγS EC50): 2–4 times
2 | CO[C@@]12CC[C@@H](N[C@@H](CCCCN)C(=O)O)[C@@H]3Oc4c(O)ccc5c4[C@@]31CCN(C)[C@@H]2C5 [Compound 8b, (2S)-6-Amino-2-[(4,5α-epoxy-3-hydroxy-14β-methoxy-17-methylmorphinan-6β-yl)amino]hexanoic Acid Trihydrochloride] | 45.1 ± 22.7 | 93 ± 8 | 3.34 ± 0.46 | 525 ± 24 | 62 ± 7 | 6.85 ± 1.39 | 90 ± 7 | 33.7 ± 4.1 | 0.53 ± 0.09 |  |  | antagonized |  | 
3 | CO[C@@]12CC[C@@H](N[C@H](C(=O)O)C3CCCCC3)[C@@H]3Oc4c(O)ccc5c4[C@@]31CCN(C)[C@@H]2C5 [Compound 18b, (2S)-2-[(4,5α-Epoxy-3-hydroxy-14β-methoxy-17-methyl-morphinan-6β-yl)-amino]-2-cyclohexylacetic Acid Dihydrochloride] | 3.57 ± 1.63 | 96 ± 10 | 1.3 ± 0.16 | 282 ± 58 | 59 ± 7 | 5.33 ± 0.89 | 86 ± 9 | 118 ± 23 | 1.66 ± 1.04 |  |  | antagonized |  | 
4 | CO[C@@]12CC[C@@H](NCC(=O)O)[C@@H]3Oc4c(O)ccc5c4[C@@]31CCN(C)[C@@H]2C5 [Compound 2b, 2-[(4,5α-Epoxy-3-Hydroxy-14β-Methoxy-17-Methylmorphinan-6β-yl)Amino]Acetic Acid] |  |  |  |  | 82 ± 9 |  | 98 ± 9 |  |  | 10.1 ± 2.7 | 0.9 ± 0.14 | reversed; also recorded: antagonized | 0.0275 | EC50 (KOR [3]): 361 ± 154 nM; EC50 (MOR [4]): 3.78 ± 0.73 nM; more potent than morphine in inhibiting the writhing response (male CD1 mice [11]): 24 times; effect of intracerebroventricular CTAP on antinociceptive effects (MOR [12]): did not reverse; effect of naloxone methiodide on antinociceptive effects (mouse): completely antagonized; effect of sc naloxone methiodide on antihyperalgesic effects (rats): reversed
5 | CO[C@@]12CC[C@H](N[C@H](C(=O)O)C3CCCCC3)[C@@H]3Oc4c(O)ccc5c4[C@@]31CCN(C)[C@@H]2C5 [Compound 18a, (2S)-2-[(4,5α-Epoxy-3-hydroxy-14β-methoxy-17-methyl-morphinan-6α-yl)-amino]-2-cyclohexylacetic Acid Dihydrochloride] | 20.5 ± 8 | 101 ± 1 | 14.3 ± 0.09 | 250 ± 80 | 52 ± 6 | 2.88 ± 1.21 | 86 ± 8 | 177 ± 30 | 1.23 ± 0.2 |  |  | reversed | 0.0206 | decreased DOR affinity vs 6β analogue (DOR [2]; rat brain, 18a vs 18b, 19a vs 19b): 11 times; Ki ratio MOR/DOR/KOR (MOR [6]; from Ki in rat (MOR, DOR) and guinea-pig (KOR) brain membranes): 1/12/144

Reference: PMC6348443 (Journal of Medicinal Chemistry, 2018)
